Where “and” joins values, the source holds several entries; their conditions need not be identical. Equal entries are not always repeated. Entries after “also recorded” stand apart in the source; their conditions may differ. Where two headings read alike, the source gives them in different places.
Assays:
[1] = plasma protein binding by Rapid Equilibrium Dialysis, human; type: in vitro ADME; settings: human, plasma
From the text: (§1) The blood-to-plasma ratios were similar across species (1.22-1.36, Table 9).

[2] = test system: Human Plasma Proteins; test: as above; type: in vitro ADME
From the text: as §1

[3] = test system: imiquimod (IMQ)-treated mouse; test: IMQ mouse model of psoriasis; type: in vivo; settings: for IL-17% effect vs. IMQ + SEM / IL-17F %effect vs IMQ + SEM: tissue mRNA
Method: Female BALB/c mice (BALB/cByJRj) were purchased from Janvier (France). Mice are allowed to eat a normal diet AO4C from SAFE (France) and drink ad libitum. BALB/c JByRj female mice (8 week-old at study initiation) are treated with imiquimod (IMQ) cream (5%) or vanicream (non-inflammatory inert cream). For three days of pre-treatment, and then daily until the end of the study (two hours before each application of IMQ), the same skin area is treated topically with 100 μL of compound. Mice are monitored for changes in clinical symptoms over the course of the study. Affected back skin is examined by histology and qPCR for evidence of compound efficacy.
Starting 3 days after first treatment, IMQ cream was applied daily for 4 (StudyA) or 10 days (Study B). Clinical scoring was monitored daily (FIG. 5A, FIG. 5B). At the end of the study, treated skin was evaluated by histology and qPCR for induced cytokine gene expression.
On days 0, 1, 2, 3: visual evaluation of the skin and psoriasis clinical scorewere noted.
Psoriasis reactions (erythema and plaques) are reported according to a 0-4 scale in ascending order of severity as shown below and results are shown in FIG. 5A1.
On the last day of treatment, a 6 mm punch of skin in the treated area is collected on a aluminium sheet (to keep the skin flattened) and placed into a tube containing Formalin solution (Neutral Buffered 10% (SIGMA HT501320-9 5L)) for histological analysis (FIG. 5A2).
On days 0, 1, 2, 3, 4, 5, 6, 7,8, 9: visual evaluation of the skin and psoriasis clinical score were noted.
Psoriasis reactions (erythema and plaques) are reported according to a 0-4 scale in ascending order of severity as shown below and results are shown in FIG. 5B1.
On the last day of treatment, a 6 mm punch of skin in the treated area is collected on a aluminium sheet (to keep the skin flattened) and placed into a tube containing Formalin solution (Neutral Buffered 10% (SIGMA HT501320-9 5L)) for histological analysis (FIG. 5B2).

[4] = skin binding in human skin homogenate; type: in vitro ADME; settings: 25, 50 and 100 ng/mL
[5] = test system: Nrf2; test: luciferase-based reporter assay for NQO1 gene expression; type: cell-based
[6] = metabolic stability in liver microsomes, mouse; type: in vitro ADME
[7] = metabolic stability in hepatocytes, dog; type: in vitro ADME
[8] = test system: IL-17A; test: CD4+ T cell IL17 assay; type: cell-based, human; settings: for IC50: T-cell
Method: Therefore, compounds are evaluated for their ability to reduce IL-17 production from CD4+ T cells stimulated under Th17-skewing conditions. Cryopreserved human CD4^+ T cells (AllCells, LLC, Alameda, CA and Stemcell Technologies, Inc. Vancouver, Canada) were differentiated to the Th17 subtype by culturing for 5 days in CD3-coated tissue culture plates (2 μg/mL) in Iscove's modified Dulbecco's medium (IMDM) containing 10% HI-FBS, 55 μM 2-mercaptoethanol and soluble anti-CD28 (3 μg/mL) in the presence of a Th17 skewing cocktail, [IL-1β (10 ng/mL), IL-6 (30 ng/mL), TGFβ (0.5 ng/mL), IL-21 (10 ng/mL), IL-23 (10 ng/mL), anti-IFNγ (10 μg/mL) and anti-IL-4 (10 μg/mL)] in the presence or absence of serially diluted compounds. Secretion of IL-17 from polarized CD4+ T-cells was measured in the culture media using an MSD (Meso Scale Discovery) detection system following 5 day exposure toTh17 polarization reagents with and without compounds.

[9] = test system: human primary keratinocytes; test: keratinocyte viability; type: cell-based; settings: 48 h, two days
From the text: Points represent percent maximum expression of protein compared to Th17 from six combined donors; 3 biological replicates per treatment. Error bars represent standard error of mean. […] Data are mean±standard error from 3 to 9 experimental data points. […] Error bars represent mean ±standard error of 10-15 biological replicates.

CC(C)c1c(O)cc(-c2cc3ccccc3cn2)cc1O
fraction unbound at 2 μM ([1]; read-out: % Unbound Mean (% CV)): 0.0108
fraction unbound at 2 μM ([1]; read-out: % Unbound Replicate): 0.0106
fraction unbound at 2 μM ([1]; read-out: Mean % Bound (converted)): 0.011
recovery at 2 μM [2]: 102%
% Unbound Replicate ([2]; 2 μM): 1.05% and 1.13%
Mean % Stability at 4 hrs ([2]; 2 μM): 101%
IL-17% effect vs. IMQ + SEM ([3]; Study A, 0.3% + IMQ): 16.27 + 4.816%
IL-17F %effect vs IMQ + SEM ([3]; Study A, 0.3% + IMQ): 22.21 + 7.418%
IL-17% effect vs. IMQ + SEM ([3]; Study B, 0.1% + IMQ): 78.48 + 18.771%
IL-17F %effect vs IMQ + SEM ([3]; Study B, 0.1% + IMQ): 45.23 + 9.519%
IL-17% effect vs. IMQ + SEM ([3]; Study B, 0.3% + IMQ): 79.33 + 22.900%
IL-17F %effect vs IMQ + SEM ([3]; Study B, 0.3% + IMQ): 60.01 + 12.229%
clinical score ([3]; daily topical, 60% EtOH: 40% H2O solution, vs vehicle-treated mice): reduced clinical score
skin cytokine gene expression (IL-17A, IL-17F) ([3]; topical, qPCR): significantly inhibited; also recorded: reduced cytokine gene expression
epidermis thickening induced by imiquimod ([3]; topical, skin histology): reduce the epidermis thickening; also recorded: reduced epidermal thickening
fraction unbound ([4]; human dermis homogenate): 0.341 ± 0.115
fraction unbound ([4]; human epidermis homogenate): 0.513 ± 0.011
fraction unbound ([4]; whole human skin homogenate): 0.219 ± 0.0072
Nrf2 pEC50 [5]: pEC50 = 7.0
CLint, mic ([6]; mouse liver microsomes, 0.5 μM): 23.4 mL/min/g liver
CLint scaled at 0.5 μM ([6]; mouse liver microsomes, 0.5 μM, read-out: Scaled CLint, mic): 1190 mL/min/kg
half-life at 0.5 μM ([6]; mouse, microsomes): 2.84 min
half-life at 0.5 μM [7]: 31.9 min
CLint, hep ([7]; 0.5 μM): 7.39 mL/min/g liver
CLint scaled at 0.5 μM ([7]; read-out: Scaled CLint, hep): 240 mL/min/kg
IC50 ([8]; MSD-based readout of secreted IL-17A from Th17-polarized primary human CD4+ peripheral blood T cells, read-out: IL-17A pIC50 (converted)): 3.98 nM
IC50 ([8]; primary human peripheral blood CD4+ T-cells, read-out: IL-17A inhibition IC50): 140 nM
IL-17A production ([8]; Th17-skewing conditions, applied throughout culture): suppression of IL-17A; also recorded: reduces IL-17A production in a dose-dependent manner
IC50 [9]: 12400 nM
